This passage reports EC50 results from patent US20200347043A1, “MODULATORS OF THE INTEGRATED STRESS PATHWAY” (Calico Life Sciences LLC, priority 2019, published 2020).

Structures are written as SMILES. Where only a bound is given, the exact number is not on record here.

The assay relates to HEK293T cells carrying the ATF4 luciferase reporter. Put plainly: ATF4-Luc assay (in vitro model of VWMD). It counts as cell-based, human. To be noted: Homo sapiens, HEK-293T, 1 μg/mL tunicamycin, 7 hours, One Glo luminescence. On the procedure: In order to test exemplary compounds of the invention in a cellular context, a stable VWMD cell line was first constructed. The ATF4 reporter was prepared by fusing the human full-length ATF4 5′-UTR (NCBI Accession No. BC022088.2) in front of the firefly luciferase (FLuc) coding sequence lacking the initiator methionine as described in Sidrauski et al (eLife 2013). The construct was used to produce recombinant retroviruses using standard methods and the resulting viral supernatant was used to transduce HEK293T cells, which were then subsequently selected with puromycin to generate a stable cell line.
HEK293T cells carrying the ATF4 luciferase reporter were plated on polylysine coated 384-well plates (Greiner Bio-one) at 30,000 cells per well. Cells were treated the next day with 1 μg/mL tunicamycin and 200 nM of a compound of Formula (I) for 7 hours. Luminescence was measured using One Glo (Promega) as specified by the manufacturer. Cells were maintained in DMEM with L-glutamine supplemented with 10% heat-inactivated FBS (Gibco) and Antibiotic-Antimycotic solution (Gibco).
Table 4 below summarizes the EC50 data obtained using the ATF4-Luc assay for exemplary compounds of the invention.

For the compound `O=C(COc1ccc(Cl)c(F)c1)N[C@H]1C[C@H]2O[C@@H]1C[C@@H]2c1nnc([C@H]2C[C@@H](OC(F)(F)F)C2)o1` (racemic) [Compound 168, 2-(4-chloro-3-fluorophenoxy)-N-[rac-(1R,2S,4R,5S)-5-{5-[cis-3-(trifluoromethoxy)cyclobutyl]-1,3,4-oxadiazol-2-yl}-7-oxabicyclo[2.2.1]heptan-2-yl]acetamide], the EC50 (commonly the concentration giving half of the maximal effect) lay within 250 to 500 nM.

Regarding `O=C(COc1ccc(Cl)c(F)c1)N[C@@H]1CC[C@@H](C(=O)N2CC(Oc3ccc(Cl)cc3)C2)OC1` [Compound 120, 2-(4-chloro-3-fluorophenoxy)-N-{(3R,6S)-6-[3-(4-chlorophenoxy)azetidine-1-carbonyl]oxan-3-yl}acetamide], the EC50 lay in the range of 10 to 50 nM.

On to `O=C(NC12CC(C3=NOC([C@H]4C[C@@H](OC(F)(F)F)C4)C3)(C1)C2)[C@@H]1C[C@@H](O)c2cc(Cl)ccc2O1` (stereo partly drawn) [Compound 233, (2S,4R)-6-chloro-4-hydroxy-N-(3-{5-[cis-3-(trifluoromethoxy)cyclobutyl]-4,5-dihydro-1,2-oxazol-3-yl}bicyclo[1.1.1]pentan-1-yl)-3,4-dihydro-2H-1-benzopyran-2-carboxamide], for which the EC50 lay in the range of 500 to 2000 nM.

As for `O=C(NC12CC(c3cc([C@H]4C[C@@H](OC(F)(F)F)C4)on3)(C1)C2)[C@H]1C[C@@H](O)c2cc(Cl)ccc2O1` [Compound 234, (2R,4R)-6-chloro-4-hydroxy-N-{3-(5-[cis-3-(trifluoromethoxy)cyclobutyl]-1,2-oxazol-3-yl}bicyclo[1.1.1]pentan-1-yl)-3,4-dihydro-2H-1-benzopyran-2-carboxamide], the EC50 is 10 to 50 nM.

Take `O=C(NC12CC(n3ccc(-c4ccc(Cl)c(F)c4)c3)(C1)C2)[C@H]1C[C@@H](O)c2cc(Cl)ccc2O1` [Compound 242, (2R,4R)-6-chloro-N-{3-[3-(4-chloro-3-fluorophenyl)-1H-pyrrol-1-yl]bicyclo[1.1.1]pentan-1-yl}-4-hydroxy-3,4-dihydro-2H-1-benzopyran-2-carboxamide]: the EC50 is below 10 nM.

With `O=C(NC12CC(n3cc(-c4ccc(Cl)cc4)cn3)(C1)C2)[C@H]1C[C@@H](O)c2cc(Cl)ccc2O1` [Compound 212, (2R,4R)-6-chloro-N-{3-[4-(4-chlorophenyl)-1H-pyrazol-1-yl]bicyclo[1.1.1]pentan-1-yl}-4-hydroxy-3,4-dihydro-2H-1-benzopyran-2-carboxamide], the EC50 was below 10 nM.

`O=C(NC12CC(C3=NOC([C@H]4C[C@@H](O)C4)C3)(C1)C2)[C@H]1C[C@@H](O)c2cc(Cl)ccc2O1` (stereo partly drawn) [Compound 227, (2R,4R)-6-chloro-4-hydroxy-N-(3-{5-[cis-3-hydroxycyclobutyl]-4,5-dihydro-1,2-oxazol-3-yl}bicyclo[1.1.1]pentan-1-yl)-3,4-dihydro-2H-1-benzopyran-2-carboxamide]: the EC50 is above 2000 nM.

On to `O=C(NC12CC(C(=O)NCc3ccc(C(F)(F)F)cn3)(C1)C2)[C@H]1C[C@@H](O)c2cc(Cl)ccc2O1` (racemic) [Compound 123, rac-(2R,4R)-6-chloro-4-hydroxy-N-[3-(([5-(trifluoromethyl)pyridin-2-yl]methyl)carbamoyl)bicyclo[1.1.1]pentan-1-yl]-3,4-dihydro-2H-1-benzopyran-2-carboxamide], for which the EC50 lay within 50 to 250 nM.

As to `O=C(NC12CC(c3ccn([C@H]4C[C@@H](OC(F)(F)F)C4)n3)(C1)C2)[C@H]1C[C@@H](O)c2cc(Cl)ccc2O1` [Compound 298, (2R,4R)-6-chloro-4-hydroxy-N-(3-{1-[cis-3-(trifluoromethoxy)cyclobutyl]-1H-pyrazol-3-yl}bicyclo[1.1.1]pentan-1-yl)-3,4-dihydro-2H-1-benzopyran-2-carboxamide], the EC50 fell in the range of 50 to 250 nM.

Regarding `O=C1C[C@H](C(=O)NC23CC(N4CCC(c5ccc(Cl)cc5)C4=O)(C2)C3)Oc2ccc(Cl)cc21` (stereo partly drawn) [Compound 224, (2R)-6-chloro-N-{3-[3-(4-chlorophenyl)-2-oxopyrrolidin-1-yl]bicyclo[1.1.1]pentan-1-yl}-4-oxo-3,4-dihydro-2H-1-benzopyran-2-carboxamide], the EC50 was above 2000 nM.

In the case of `O=C(N[C@@H]1C[C@@H]2O[C@H]1C[C@H]2c1nnc([C@H]2C[C@@H](OC(F)(F)F)C2)o1)[C@@H]1C[C@@H](O)c2cc(Cl)ccc2O1` (racemic) [Compound 185, (2S,4R)-6-chloro-4-hydroxy-N-[(1RS,2SR,4RS,5SR)-5-{5-[cis-3-(trifluoromethoxy)cyclobutyl]-1,3,4-oxadiazol-2-yl}-7-oxabicyclo[2.2.1]heptan-2-yl]-3,4-dihydro-2H-1-benzopyran-2-carboxamide], the EC50 is above 2000 nM.

In the case of `O=C1CC(C(=O)N[C@H]2C[C@H]3CC[C@@H](C2)N3CCCOc2ccc(Cl)cc2)Oc2ccc(Cl)cc21` (stereo partly drawn) [Compound 101], the EC50 was above 2000 nM.

For `O=C1C[C@@H](C(=O)NC23CC(n4cnc(-c5ccc(F)c(F)c5)c4)(C2)C3)Oc2ccc(Cl)cc21` [Compound 175, (2S)-6-chloro-N-{3-[4-(3,4-difluorophenyl)-1H-imidazol-1-yl]bicyclo[1.1.1]pentan-1-yl}-4-oxo-3,4-dihydro-2H-1-benzopyran-2-carboxamide], the EC50 fell in the range of 50 to 250 nM.

On to `O=C(CO[C@H]1C[C@@H](OC(F)(F)F)C1)NC12CCC(NC(=O)[C@@H]3C[C@@H](O)c4cc(Cl)ccc4O3)(CC1)C[C@@H]2O` (single isomer, unassigned) [Compound 279], for which the EC50 is below 10 nM.

Consider `O=C(N[C@H]1CC[C@H](N2CCN(C3CC(OC(F)(F)F)C3)C2=O)CC1)[C@H]1C[C@@H](O)c2cc(Cl)ccc2O1` (stereo partly drawn) [Compound 197], for which the concentration giving a half-maximal response (EC50) was above 2000 nM.

On to `O=C(NC12CC(n3cnc(-c4ccc(F)c(F)c4)c3)(C1)C2)[C@H]1C[C@@H](O)c2cc(Cl)ccc2O1` [Compound 181, (2R,4R)-6-chloro-N-{3-[4-(3,4-difluorophenyl)-1H-imidazol-1-yl]bicyclo[1.1.1]pentan-1-yl}-4-hydroxy-3,4-dihydro-2H-1-benzopyran-2-carboxamide], for which the EC50 is below 10 nM.

Turning to `O=C1C[C@H](C(=O)N[C@H]2CC[C@H](C(=O)N3CC(c4ccc(Cl)cc4)C3)CC2)Oc2ccc(Cl)cc21` [Compound 173, (2R)-6-chloro-N-{trans-4-[3-(4-chlorophenyl)azetidine-1-carbonyl]cyclohexyl}-4-oxo-3,4-dihydro-2H-1-benzopyran-2-carboxamide], the EC50 lay in the range of 10 to 50 nM.

Turning to `O=C(CO[C@H]1C[C@@H](OC(F)(F)F)C1)NC12CC(NC(=O)[C@@H]3C[C@@H](O)c4cc(Cl)ccc4O3)(C1)C2` [Compound 208, (2S,4R)-6-chloro-4-hydroxy-N-[3-(2-{[cis-3-(trifluoromethoxy)cyclobutyl]oxy}acetamido)bicyclo[1.1.1]pentan-1-yl]-3,4-dihydro-2H-1-benzopyran-2-carboxamide], the EC50 is below 10 nM.

In the case of `O=C(NC12CC(n3ccc(-c4ccc(C(F)(F)F)nc4)c3)(C1)C2)[C@H]1C[C@@H](O)c2cc(Cl)ccc2O1` [Compound 244, (2R,4R)-6-chloro-4-hydroxy-N-(3-{3-[6-(trifluoromethyl)pyridin-3-yl]-1H-pyrrol-1-yl}bicyclo[1.1.1]pentan-1-yl)-3,4-dihydro-2H-1-benzopyran-2-carboxamide], the 50% effective concentration (EC50) is below 10 nM.

Take `O=C(N[C@@H]1CC[C@@H](c2nnc([C@H]3C[C@@H](OC(F)(F)F)C3)o2)OC1)[C@H]1C[C@@H](O)c2cc(Cl)ccc2O1` [Compound 169, (2R,4R)-6-chloro-4-hydroxy-N-[(3R,6S)-6-{5-[cis-3-(trifluoromethoxy)cyclobutyl]-1,3,4-oxadiazol-2-yl}oxan-3-yl]-3,4-dihydro-2H-1-benzopyran-2-carboxamide]: the EC50 was below 10 nM.

In the case of `O=C(NC12CC(c3cnn(-c4ccc(C(F)(F)F)nc4)c3)(C1)C2)[C@@H]1C[C@@H](O)c2cc(Cl)ccc2O1` [Compound 263, (2S,4R)-6-chloro-4-hydroxy-N-(3-{1-[6-(trifluoromethyl)pyridin-3-yl]-1H-pyrazol-4-yl}bicyclo[1.1.1]pentan-1-yl)-3,4-dihydro-2H-1-benzopyran-2-carboxamide], the EC50 lay in the range of 10 to 50 nM.

Consider `O=C(CO[C@H]1C[C@@H](OC(F)(F)F)C1)NC12CCC(NC(=O)[C@H]3C[C@@H](O)c4cc(Cl)ccc4O3)(CC1)C[C@@H]2O` [Compound 117, (2R,4R)-6-chloro-4-hydroxy-N-[(3S)-3-hydroxy-4-(2-{[(1s,3R)-3-(trifluoromethoxy)cyclobutyl]oxy}acetamido)bicyclo[2.2.2]octan-1-yl]-3,4-dihydro-2H-1-benzopyran-2-carboxamide], for which the EC50 was below 10 nM.

With `O=C(NC12CC(NC(=O)[C@H]3C[C@@H](OC(F)(F)F)C3)(C1)C2)[C@H]1C[C@@H](O)c2cc(Cl)ccc2O1` [Compound 128, (2R,4R)-6-chloro-4-hydroxy-N-(3-{[(1s,3S)-3-(trifluoromethoxy)cyclobutane-1-carbonyl]amino}bicyclo[1.1.1]pentan-1-yl)-3,4-dihydro-2H-1-benzopyran-2-carboxamide], the EC50 fell in the range of 500 to 2000 nM.

Regarding `O=C1CC(C(=O)N[C@@H]2CC[C@@H](c3nnc([C@H]4C[C@@H](OC(F)(F)F)C4)o3)OC2)Oc2ccc(Cl)cc21` (stereo partly drawn) [Compound 152, 6-chloro-4-oxo-N-[(3R,6)-6-{5-[(1s,3R)-3-(trifluoromethoxy)cyclobutyl]-1,3,4-oxadiazol-2-yl}oxan-3-yl]-3,4-dihydro-2H-1-benzopyran-2-carboxamide], the EC50 was in the range of 10 to 50 nM.
